# From article PMC12476894, “Identification of α‑Azacyclic Acetamide-Based Inhibitors of P. falciparum Na^+ Pump (PfATP4) with Fast-Killing Asexual Blood-Stage Antimalarial Activity by Phenotypic Screening” (ACS Infectious Diseases, 2025)
# Where two headings read alike, the source gives them in different places.
# What was measured:
# [1] = tested on: P. falciparum 3D7 parasites (Pf3D7); assay: 72 h SYBR Green growth inhibition, ABS P. falciparum 3D7 (Phillips Lab); assay type: cell-based, Plasmodium falciparum; settings: for reduction of activity relative to 2 / activity of analogs relative to parent 2 or 3 (in words): P. falciparum 3D7 and Dd2 parasites; for reduction of activity relative to 2: analogs of 2; for EC50: 72 h SYBR Green assay, mean ± SEM (n)
# [2] = tested on: P. falciparum Dd2 (PfDd2) parasites; assay: 72 h SYBR Green growth inhibition, ABS P. falciparum Dd2 (Phillips Lab); assay type: cell-based, Plasmodium falciparum; settings: read-out: PfDd2 EC50
# [3] = tested on: Pf3D7 trophozoites, pHcyt (PfATP4 and other plasma membrane transporters); set-up: method as in previous study; settings: all conditions, versus solvent control 0.1% DMSO; ref previous study; cited from earlier work
# [4] = tested on: Dd2 PfATP4^F917L mutant clones; assay: 72 h SYBR Green growth inhibition, 2- or 3-selected Dd2 clones with PfATP4 F917L (Phillips Lab); assay type: cell-based, Plasmodium falciparum
# Procedure: (§1) To confirm the MOA for the α-azacyclic acetamides against P. falciparum and to obtain potential information about whether or not they bind PfATP4 at an overlapping site with that of KAE609, we undertook resistance selections using PfDd2 parasites using the published cycling drug selection method. , α-Azacyclic acetamides 2 and 3 were chosen as representative examples of the pyrrole- and indole-based series, respectively. […] Additional cycles were performed at 20 × EC50, until resistant parasites were detected based on a fold change in EC50 compared to the parental clonal Dd2 line (Table S3). Resistant parasites were detected in the 2-selections in all 4 flasks after 4 pulses and for 3-selections in 3 flasks after 5 pulses. Clonal lines were generated from each flask, and one clone per flask was selected for WGS and EC50 determination (Tables S4 and S5). WGS analysis identified two single point mutations in PfATP4 that were not present in the original clonal Dd2 parasite line (Tables and S4). P412L was found in three of four flasks containing 2-selected resistance clones, and F917L was identified in all three flasks containing 3-selected clones and in the fourth flask containing 2-selected clones (Table S4). PfATP4 mutations identified by the WGS analysis in parasite lines were verified by PCR of the pfatp4 gene, followed by Sanger sequencing (Figures S5, S6 and Table S6). An additional protein coding gene (ribosomal protein S8e) was mutated in the 2-selections. However, this mutation was identified in only one of four sequenced clones and is therefore unlikely to be related to resistance to 2 (Figure S7). All three resistant clones derived from the 3-selections harbored an identical mutation in a gene (pfcpu) encoding a conserved protein of unknown function, which was absent in the parental line (Figure S8).
# (§2) ABS P. falciparum 3D7, Dd2 or PfNF54^luc parasites (BEI resources) were cultured in RPMI 1640 medium (Millipore Sigma), supplemented with 25 mM HEPES, 0.5% Albumax-I (Thermo Scientific), 23 mM sodium bicarbonate, 92 μM hypoxanthine, and 10 μg/mL gentamicin sulfate at 37 °C, 5% CO2, using deidentified O^+ red blood cells (BioIVT) as previously described. − Growth inhibition assays were conducted in 96 well plate format using the SYBR Green or luciferase reporter assay depending on the strain with modifications as described , (see Supporting Information for a detailed description). Details for the luciferase reporter assay are described below under the BRRoK assay section.
# (§3) EC50 and CC50 values were determined by nonlinear regression performed in GraphPad Prism Version 10. Unless otherwise specified, data were fitted to the log(inhibitor) vs response–variable slope with four parameters equation. […] For mutant cell lines and compound combinations where bottom plateau of zero growth was not reached, the bottom of the curve was defined at 0% based on background values obtained for parental Dd2 from the same study.
# (§4) Resistant Dd2 parasites were selected using a high-pressure intermittent selection protocol using a previously described method. Selections were set up using 4 flasks per compound starting with approximately 3 × 10^9 parasites per flask (80 mL per flask, 4% hematocrit, 3% parasitemia at the beginning of each pulse, mostly ring-stage parasites via previous sorbitol synchronization. Pulse 1 and 2 (48 h) were conducted at 10xEC50, and subsequent pulses were conducted at 20xEC50. Parasites cleared within 48 h under these conditions. 3-Selections used a total of 4 pulses, while 2-selections required 5 pulses before resistant parasites emerged (Table S3). Culture media was replenished daily for a week after each pulse, then every 2 days with weekly replenishment of blood. Cultures were monitored by microscopy until recrudescence. Clonal parasites were obtained from each flask by limiting dilution and maintained in drug free RPMI-1640 media prior to being analyzed for EC50 shifts. […]
# PfD10 attB = assay: 72 h SYBR Green growth inhibition, PfD10 attB; assay type: cell-based; settings: Plasmodium falciparum; 72 h SYBR Green assay
# [5] = tested on: Pf3D7 trophozoite-stage parasites, cytosolic pH (pHcyt); cell-based assay for ATP4 inhibition; assay: P. falciparum cytosolic dose response pH assay (BCECF, with concanamycin A)
# [6] = tested on: Dd2 PfATP4^P412L mutant clones; assay: 72 h SYBR Green growth inhibition, 2-selected Dd2 clones with PfATP4 P412L (Phillips Lab); assay type: cell-based, Plasmodium falciparum
# Procedure: as §1, §2, §3, §4
# [7] = tested on: P. falciparum NF54^luc parasites; assay: Luciferase reporter (LR) / BRRoK assay, PfNF54^luc; assay type: cell-based, Plasmodium falciparum; settings: for EC50: Plasmodium falciparum, NF54, Hec50, luciferase reporter
# [8] = tested on: P. falciparum NF54^luc parasites; assay: 72 h SYBR Green growth inhibition, PfNF54^luc; assay type: cell-based; settings: Plasmodium falciparum
# [9] = tested on: P. falciparum NF54^luc parasites; assay: Luciferase reporter (LR) / BRRoK assay, PfNF54^luc; assay type: cell-based; settings: Plasmodium falciparum, NF54, Hec50, 72 h
# Dd2-B2 (PfATP4^WT) = assay: Drug susceptibility assay for cross-resistance profiling (Fidock Lab), parental line; assay type: cell-based, Plasmodium falciparum; settings: for EC50: Plasmodium falciparum
# Dd2^P412L (PfATP4^P412L) = assay: Drug susceptibility assay for cross-resistance profiling (Fidock Lab), P412L; assay type: cell-based, Plasmodium falciparum; settings: Table 3 data set
# Dd2^L350H (PfATP4^L350H) = assay: Drug susceptibility assay for cross-resistance profiling (Fidock Lab), L350H; assay type: cell-based, Plasmodium falciparum; settings: Table 3 data set
# [10] = Plasmodium falciparum, DD2, 72 h
# [11] = 72 h SYBR Green assay, mean ± SEM (n)
# [12] = 72 h SYBR Green assay, read-out: PfNF54^luc EC50
# [13] = Plasmodium falciparum, DD2, 15-selected line
compound,measurement,setting,value
"Cc1cccc(NC(=O)Cn2cccc2-c2nc(-c3ccccc3)cs2)c1 [compound 9, N-(3-methylphenyl)-2-[2-(4-phenyl-1,3-thiazol-2-yl)-1H-pyrrol-1-yl]acetamide]",reduction of activity relative to 2,[1],2 fold
same,EC50,"[1]; Plasmodium falciparum, 3D7",2800 ± 170 nM
same,EC50,[2]; [10],1700 ± 38 nM
"Cc1cc(N)n(CC(=O)NCCn2c(C)cc3ccccc32)n1 [compound 14, 2-(5-amino-3-methyl-1H-pyrazol-1-yl)-N-[2-(2-methyl-1H-indol-1-yl)ethyl]acetamide]",EC50,[1],> 30000 nM
same,activity of analogs relative to parent 2 or 3 (in words),[1],loss of activity
same,EC50,[2]; [11],> 30000 nM
"CC(=O)c1cn(C(C)C(=O)NCCn2nc(C)c(Cl)c2C)c2ccccc12 (stereo not shown) [compound 12, 2-(3-acetyl-1H-indol-1-yl)-N-[2-(4-chloro-3,5-dimethyl-1H-pyrazol-1-yl)ethyl]propenamide]",EC50,[1],> 30000 nM
same,activity of analogs relative to parent 2 or 3 (in words),[1],loss of activity
same,EC50,[2]; [11],> 30000 nM
O=C1C(O)=C([C@H]2CC[C@H](c3ccc(Cl)cc3)CC2)C(=O)c2ccccc21 [atovaquone],pH fingerprint traces (in words),[3],overlapped with those of the solvent control
"Cc1cc(Nc2ccc(S(F)(F)(F)(F)F)cc2)n2nc(C(C)(F)F)nc2n1 [DSM265, reference compound]",EC50,"[4]; Plasmodium falciparum, DD2, read-out: EC50, 3-selected flask #3 clone D8",7.3 ± 0.13 nM
same,"Fold EC50 change compared to WT Dd2, 3-selected flask #3 clone D8",[4]; {},0.85 fold
same,EC50,PfD10 attB,12 nM
same,effect on parasite cytosolic pH (pHcyt) in presence of CMA (in words),"[5]; Pf3D7, CMA 50 nM",no impact on pH
same,EC50,"[5]; Plasmodium falciparum, read-out: Pf3D7 pH EC50",> 400 nM
same,EC50,"[1]; Plasmodium falciparum, 3D7",6.6 ± 0.36 nM
same,EC50,"[6]; Plasmodium falciparum, DD2, read-out: EC50, 2-selected flask #3 clone F5",8.5 ± 1.4 nM
same,"Fold EC50 change compared to WT Dd2, 2-selected flask #3 clone F5",[6]; {},0.99 fold
same,EC50,[2]; [10],8.6 ± 0.36 nM
same,"BRRoK assay, luciferase activity after 6 h treatment (kill rate, in words)","[7]; 6 h, 47x to 0.04x EC50",did not reduce parasite levels in the 6 h treatment window
same,EC50,[7]; 6 h,> 240 nM
same,EC50,[8]; [12],8.6 ± 0.3 nM
same,EC50,[9],6.8 ± 0.69 nM
"C[C@@H]1CC[C@H]2[C@@H](C)C(=O)O[C@@H]3O[C@@]4(C)CC[C@@H]1[C@]32OO4 [ART, artemisinin, reference compound]",EC50,[7]; 6 h,80 nM
same,6 h EC50 relative to 72 h SYBR Green and LR EC50,[7]; higher at 6 h,10–20 fold
same,EC50,[8]; [12],10 nM
same,EC50,"[8]; 72 h SYBR Green, as listed in supplementary methods, read-out: EC50 values used for BRRoK concentration range (72h SYBR Green assay vs PfNF54luc)",9.7 nM
same,EC50,[9],4 nM
N#Cc1cc(NC(=O)[C@H]2c3ccccc3C(=O)N(CC(F)(F)F)[C@@H]2c2cccnc2)ccc1F [SJ733],EC50,"Dd2-B2 (PfATP4^WT); DD2, read-out: EC50, Dd2-B2",130 nM
same,"Fold change, Dd2-B2","Dd2-B2 (PfATP4^WT); parent, Table S8",1 fold
"Cc1cccnc1NC(=O)Cn1cccc1-c1nc(-c2ccc(Cl)cc2)cs1 [compound 8, 2-(2-(4-(4-chlorophenyl)-1,3-thiazol-2-yl)-1H-pyrrol-1-yl)-N-(3-methylpyridin-2-yl)acetamide]",EC50,[1],> 30000 nM
same,activity of analogs relative to parent 2 or 3 (in words),[1],complete loss of activity
same,EC50,[2]; [11],> 30000 nM
"O=C(Cn1ccc2ccccc21)NCCn1cccn1 [compound 13, 2-(1H-indol-1-yl)-N-[2-(1H-pyrazol-1-yl)ethyl]acetamide]",EC50,[1],> 30000 nM
same,activity of analogs relative to parent 2 or 3 (in words),[1],loss of activity
same,EC50,[2]; [11],> 30000 nM
CCN(CC)CCCC(C)Nc1ccnc2cc(Cl)ccc12 (stereo not shown) [chloroquine],pH fingerprint traces (in words),[3],overlapped with those of the solvent control
"O=C(Cn1cccc1-c1nc(-c2ccccc2)cs1)Nc1cccc(Cl)c1 [compound 10, N-(3-chlorophenyl)-2-[2-(4-phenyl-1,3-thiazol-2-yl)-1H-pyrrol-1-yl]acetamide]",EC50,[1],1600 ± 330 nM
same,activity of analogs relative to parent 2 or 3 (in words),[1],activity was restored
same,EC50,[2]; [11],980 ± 82 nM
"O=C(Cn1cccc1-c1nc(-c2ccc(Cl)cc2)cs1)N1CCc2ccccc21 [compound 11, 2-(2-(4-(4-chlorophenyl)-1,3-thiazol-2-yl)-1H-pyrrol-1-yl)-1-(2,3-dihydro-1H-indol-1-yl)ethan-1-one]",EC50,[1],> 30000 nM
same,activity of analogs relative to parent 2 or 3 (in words),[1],complete loss of activity
same,EC50,[2]; [11],> 30000 nM
"Cc1ccc(NC(=O)Cn2cccc2-c2nc(-c3ccccc3)cs2)nc1 [compound 5, N-(5-methylpyridin-2-yl)-2-[2-(4-phenyl-1,3-thiazol-2-yl)-1H-pyrrol-1-yl]acetamide]",EC50,[1],10000 ± 30 nM
same,reduction of activity relative to 2,[1],10–20 fold
same,EC50,[2]; [11],9600 ± 440 nM
"Cc1cccc(NC(=O)Cn2cccc2-c2nc(-c3ccccc3)cs2)n1 [compound 6, N-(6-methylpyridin-2-yl)-2-[2-(4-phenyl-1,3-thiazol-2-yl)-1H-pyrrol-1-yl]acetamide]",EC50,[1],15000 ± 870 nM
same,reduction of activity relative to 2,[1],10–20 fold
same,EC50,[2]; [11],12000 ± 1100 nM
"Cc1ccnc(NC(=O)Cn2cccc2-c2nc(-c3ccc(Cl)cc3)cs2)c1 [compound 7, 2-(2-(4-(4-chlorophenyl)-1,3-thiazol-2-yl)-1H-pyrrol-1-yl}-N-(4-methylpyridin-2-yl)acetamide]",EC50,[1],15000 ± 2400 nM
same,reduction of activity relative to 2,[1],10–20 fold
same,EC50,[2]; [11],14000 ± 580 nM
"C[C@H]1[C@@H](O)O[C@@H]2O[C@@]3(C)CC[C@H]4[C@H](C)CC[C@@H]1[C@@]24OO3 [DHA, dihydroartemisinin, reference compound]",EC50,Dd2^P412L (PfATP4^P412L); [13],2.7 ± 0.15 nM
same,"EC50 fold-change vs Dd2-B2, Dd2^P412L",Dd2^P412L (PfATP4^P412L),1.4 fold
same,pH fingerprint traces (in words),[3],overlapped with those of the solvent control
same,EC50,"Dd2-B2 (PfATP4^WT); DD2, 72 h, read-out: EC50, Dd2-B2",2 ± 0.09 nM
same,EC50,Dd2^L350H (PfATP4^L350H); [13],2.4 ± 0.23 nM
same,"EC50 fold-change vs Dd2-B2, Dd2^L350H",Dd2^L350H (PfATP4^L350H),1.2 fold
